{
  "source": "the supplement of paper PMC4862054",
  "data": [
    {"system": "CAL-85-1", "assay": "normalised response (% of control), CellTiter-Glo; higher = more viable cells (100 = DMSO, 0 = benzethonium chloride kill control)", "conditions": "incubation time: 72 h", "experimental": "(§1)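 DSRT, 72 h incubation, CellTox Green / CellTiter-Glo readout. Signal is normalised to DMSO and benzethonium chloride controls. Value is the normalised response at dose 3.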", "units": {"normalised response": "%"}, "values": [
      {"compound": "Cc1cc(C(C)Nc2ccccc2)c2nc(N3CCOCC3)cc(=O)n2c1", "note": "(stereo not given) [TGX-221] (100 nM)", "normalised response": 99.7},
      {"compound": "CCS(=O)(=O)c1cccc(-c2cc(C(=O)NC3CCN(C)CC3)c(C)c3[nH]c4ncc(C)cc4c23)c1", "note": "[TAK-901] (10 nM)", "normalised response": 100},
      {"compound": "O=c1[nH]c(=O)n([C@H]2C[C@H](O)[C@@H](CO)O2)cc1F", "note": "[Floxuridine] (100 nM)", "normalised response": 57}
    ]},
    {"system": "DU-4475", "assay": "normalised response (% of control), CellTiter-Glo; higher = more viable cells (100 = DMSO, 0 = benzethonium chloride kill control)", "conditions": "incubation time: 72 h", "experimental": "as §1", "units": {"normalised response": "%"}, "values": [
      {"compound": "CC(C)(C)c1cc(NC(=O)Nc2ccc(-c3cn4c(n3)sc3cc(OCCN5CCOCC5)ccc34)cc2)no1", "note": "[Quizartinib] (10 nM)", "normalised response": 97.9},
      {"compound": "CN(c1ccccc1CNc1nc(Nc2ccc3c(c2)CC(=O)N3)ncc1C(F)(F)F)S(C)(=O)=O", "note": "(100 nM)", "normalised response": 95.6},
      {"compound": "Nc1nccc(-c2c(-c3ccc(F)cc3)ncn2C2CCCCC2)n1", "note": "(100 nM)", "normalised response": 101},
      {"compound": "COC1=C2C[C@@H](C)C[C@H](OC)[C@H](O)[C@@H](C)/C=C(\\C)[C@H](OC(N)=O)[C@@H](OC)/C=C\\C=C(/C)C(=O)NC(=CC1=O)C2=O", "note": "[Geldanamycin] (100 nM)", "normalised response": 106},
      {"compound": "Cn1c(=O)c(F)c(Nc2ccc(I)cc2F)c2c(=O)n(C[C@@H](O)CO)cnc21", "note": "[TAK-733] (10 nM)", "normalised response": 38.9},
      {"compound": "CS(=O)(=O)CCNCc1ccc(-c2ccc3ncnc(Nc4ccc(OCc5cccc(F)c5)c(Cl)c4)c3c2)o1", "note": "[Lapatinib] (10 nM)", "normalised response": 106},
      {"compound": "Cc1cc(C(C)Nc2ccccc2)c2nc(N3CCOCC3)cc(=O)n2c1", "note": "(stereo not given) [TGX-221] (100 nM)", "normalised response": 95.8},
      {"compound": "CCS(=O)(=O)c1cccc(-c2cc(C(=O)NC3CCN(C)CC3)c(C)c3[nH]c4ncc(C)cc4c23)c1", "note": "[TAK-901] (10 nM)", "normalised response": 107},
      {"compound": "O=c1[nH]c(=O)n([C@H]2C[C@H](O)[C@@H](CO)O2)cc1F", "note": "[Floxuridine] (100 nM)", "normalised response": 103}
    ]},
    {"system": "HCC1143", "assay": "normalised response (% of control), CellTiter-Glo; higher = more viable cells (100 = DMSO, 0 = benzethonium chloride kill control)", "conditions": "incubation time: 72 h", "experimental": "as §1", "units": {"normalised response": "%"}, "values": [
      {"compound": "CC(C)(C)c1cc(NC(=O)Nc2ccc(-c3cn4c(n3)sc3cc(OCCN5CCOCC5)ccc34)cc2)no1", "note": "[Quizartinib] (10 nM)", "normalised response": 104},
      {"compound": "CN(c1ccccc1CNc1nc(Nc2ccc3c(c2)CC(=O)N3)ncc1C(F)(F)F)S(C)(=O)=O", "note": "(100 nM)", "normalised response": 96.5},
      {"compound": "Nc1nccc(-c2c(-c3ccc(F)cc3)ncn2C2CCCCC2)n1", "note": "(100 nM)", "normalised response": 112},
      {"compound": "COC1=C2C[C@@H](C)C[C@H](OC)[C@H](O)[C@@H](C)/C=C(\\C)[C@H](OC(N)=O)[C@@H](OC)/C=C\\C=C(/C)C(=O)NC(=CC1=O)C2=O", "note": "[Geldanamycin] (100 nM)", "normalised response": 104},
      {"compound": "Cn1c(=O)c(F)c(Nc2ccc(I)cc2F)c2c(=O)n(C[C@@H](O)CO)cnc21", "note": "[TAK-733] (10 nM)", "normalised response": 92.6},
      {"compound": "CS(=O)(=O)CCNCc1ccc(-c2ccc3ncnc(Nc4ccc(OCc5cccc(F)c5)c(Cl)c4)c3c2)o1", "note": "[Lapatinib] (10 nM)", "normalised response": 103},
      {"compound": "Cc1cc(C(C)Nc2ccccc2)c2nc(N3CCOCC3)cc(=O)n2c1", "note": "(stereo not given) [TGX-221] (100 nM)", "normalised response": 96.4},
      {"compound": "CCS(=O)(=O)c1cccc(-c2cc(C(=O)NC3CCN(C)CC3)c(C)c3[nH]c4ncc(C)cc4c23)c1", "note": "[TAK-901] (10 nM)", "normalised response": 98.7},
      {"compound": "O=c1[nH]c(=O)n([C@H]2C[C@H](O)[C@@H](CO)O2)cc1F", "note": "[Floxuridine] (100 nM)", "normalised response": 103}
    ]},
    {"system": "HCC1599", "assay": "normalised response (% of control), CellTiter-Glo; higher = more viable cells (100 = DMSO, 0 = benzethonium chloride kill control)", "conditions": "incubation time: 72 h", "experimental": "as §1", "units": {"normalised response": "%"}, "values": [
      {"compound": "CC(C)(C)c1cc(NC(=O)Nc2ccc(-c3cn4c(n3)sc3cc(OCCN5CCOCC5)ccc34)cc2)no1", "note": "[Quizartinib] (10 nM)", "normalised response": 89},
      {"compound": "CN(c1ccccc1CNc1nc(Nc2ccc3c(c2)CC(=O)N3)ncc1C(F)(F)F)S(C)(=O)=O", "note": "(100 nM)", "normalised response": 98.3},
      {"compound": "Nc1nccc(-c2c(-c3ccc(F)cc3)ncn2C2CCCCC2)n1", "note": "(100 nM)", "normalised response": 102},
      {"compound": "COC1=C2C[C@@H](C)C[C@H](OC)[C@H](O)[C@@H](C)/C=C(\\C)[C@H](OC(N)=O)[C@@H](OC)/C=C\\C=C(/C)C(=O)NC(=CC1=O)C2=O", "note": "[Geldanamycin] (100 nM)", "normalised response": 109},
      {"compound": "Cn1c(=O)c(F)c(Nc2ccc(I)cc2F)c2c(=O)n(C[C@@H](O)CO)cnc21", "note": "[TAK-733] (10 nM)", "normalised response": 82.3},
      {"compound": "CS(=O)(=O)CCNCc1ccc(-c2ccc3ncnc(Nc4ccc(OCc5cccc(F)c5)c(Cl)c4)c3c2)o1", "note": "[Lapatinib] (10 nM)", "normalised response": 97.6},
      {"compound": "Cc1cc(C(C)Nc2ccccc2)c2nc(N3CCOCC3)cc(=O)n2c1", "note": "(stereo not given) [TGX-221] (100 nM)", "normalised response": 113},
      {"compound": "CCS(=O)(=O)c1cccc(-c2cc(C(=O)NC3CCN(C)CC3)c(C)c3[nH]c4ncc(C)cc4c23)c1", "note": "[TAK-901] (10 nM)", "normalised response": 120},
      {"compound": "O=c1[nH]c(=O)n([C@H]2C[C@H](O)[C@@H](CO)O2)cc1F", "note": "[Floxuridine] (100 nM)", "normalised response": 66.8}
    ]},
    {"system": "HCC1937", "assay": "normalised response (% of control), CellTiter-Glo; higher = more viable cells (100 = DMSO, 0 = benzethonium chloride kill control)", "conditions": "incubation time: 72 h", "experimental": "as §1", "units": {"normalised response": "%"}, "values": [
      {"compound": "CC(C)(C)c1cc(NC(=O)Nc2ccc(-c3cn4c(n3)sc3cc(OCCN5CCOCC5)ccc34)cc2)no1", "note": "[Quizartinib] (10 nM)", "normalised response": 98},
      {"compound": "CN(c1ccccc1CNc1nc(Nc2ccc3c(c2)CC(=O)N3)ncc1C(F)(F)F)S(C)(=O)=O", "note": "(100 nM)", "normalised response": 96.5},
      {"compound": "Nc1nccc(-c2c(-c3ccc(F)cc3)ncn2C2CCCCC2)n1", "note": "(100 nM)", "normalised response": 102},
      {"compound": "COC1=C2C[C@@H](C)C[C@H](OC)[C@H](O)[C@@H](C)/C=C(\\C)[C@H](OC(N)=O)[C@@H](OC)/C=C\\C=C(/C)C(=O)NC(=CC1=O)C2=O", "note": "[Geldanamycin] (100 nM)", "normalised response": 101},
      {"compound": "Cn1c(=O)c(F)c(Nc2ccc(I)cc2F)c2c(=O)n(C[C@@H](O)CO)cnc21", "note": "[TAK-733] (10 nM)", "normalised response": 88},
      {"compound": "CS(=O)(=O)CCNCc1ccc(-c2ccc3ncnc(Nc4ccc(OCc5cccc(F)c5)c(Cl)c4)c3c2)o1", "note": "[Lapatinib] (10 nM)", "normalised response": 99.2},
      {"compound": "Cc1cc(C(C)Nc2ccccc2)c2nc(N3CCOCC3)cc(=O)n2c1", "note": "(stereo not given) [TGX-221] (100 nM)", "normalised response": 88.1},
      {"compound": "CCS(=O)(=O)c1cccc(-c2cc(C(=O)NC3CCN(C)CC3)c(C)c3[nH]c4ncc(C)cc4c23)c1", "note": "[TAK-901] (10 nM)", "normalised response": 93.4},
      {"compound": "O=c1[nH]c(=O)n([C@H]2C[C@H](O)[C@@H](CO)O2)cc1F", "note": "[Floxuridine] (100 nM)", "normalised response": 75.4}
    ]},
    {"system": "HDQ-P1", "assay": "normalised response (% of control), CellTiter-Glo; higher = more viable cells (100 = DMSO, 0 = benzethonium chloride kill control)", "conditions": "incubation time: 72 h", "experimental": "as §1", "units": {"normalised response": "%"}, "values": [
      {"compound": "CC(C)(C)c1cc(NC(=O)Nc2ccc(-c3cn4c(n3)sc3cc(OCCN5CCOCC5)ccc34)cc2)no1", "note": "[Quizartinib] (10 nM)", "normalised response": 101}
    ]}
  ]
}
